Results published in patent US10828301B2, “2,4-pyrimidinediamine compounds and their uses” (Rigel Pharmaceuticals, Inc, priority 2002, dated 2020).
pIC50: −log10 of the molar value.

How the values were obtained:
[1] = test system: cultured human mast cells (CHMC); assay: CHMC low cell density IgE activation: tryptase and LTC4 assays; type: cell-based; conditions: Low Density CHMC, anti-IgE activation, tryptase readout, read-out: CHMC anti-IgE Tryptase
In short: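 Degranulation measured after 30 min anti-IgE challenge at 37° C of CHMC plated at 1000-1500 cells/well following 1 h preincubation. Readouts: LTC4 by ELISA on donor-specific diluted supernatants, and tryptase activity from a 30 min room-temperature substrate reaction.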

[2] = test system: cultured human mast cells (CHMC); assay: CHMC low cell density ionomycin activation: tryptase assay; type: cell-based; conditions: Low Density CHMC, ionomycin activation, tryptase readout, read-out: CHMC Ionomycin Tryptase

Structure (SMILES)	pIC50 ([1]; Homo sapiens, Mast cell)	pIC50 ([2]; Homo sapiens, Mast cell)	pIC50 [1]	pIC50 [2]
COCCOc1cccc(Nc2ncc(F)c(Nc3cccc(OCCOC)c3)n2)c1 [Compound R935076, N2,N4-Bis[3-(2-methoxyethyl)oxyphenyl]-5-fluoro-2,4-pyrimidinediamine]	5.38	< 5.00	–	–
CC(C)c1ccc(O)cc1Nc1ncc(F)c(Nc2cc(O)ccc2C(C)C)n1 [Compound R935077, N2,N4-Bis(5-hydroxy-2-isopropylphenyl)-5-fluoro-2,4-pyrimidinediamine]	< 5.00	< 5.00	–	–
CC(C)Oc1ccc(Nc2nc(Nc3ccc(C(C)(C)CO)cc3)ncc2F)cc1 [Compound R935151, 5-Fluoro-N2-[4-(2-hydroxy-1,1-dimethylethyl)phenyl]-N4-(4-isopropoxyphenyl)-2,4-pyrimidinediamine]	6.32	< 5.00	–	–
CC(C)(CO)c1ccc(Nc2nc(Nc3ccc(OCCO)cc3)ncc2F)cc1 [Compound R935158, 5-Fluoro-N4-[4-(2-hydroxy-1,1-dimethylethyl)phenyl]-N2-[4-(2-hydroxyethoxy)phenyl]-2,4-pyrimidinediamine]	6.26	< 5.00	–	–
CC(C)(CO)c1ccc(Nc2nc(Nc3cccc(OCCO)c3)ncc2F)cc1 [Compound R935161, 5-Fluoro-N4-[4-(2-hydroxy-1,1-dimethylethyl)phenyl]-N2-[3-(2-hydroxyethoxy)phenyl]-2,4-pyrimidinediamine]	6.56	< 5.00	–	–
CC(C)Oc1ccc(Nc2ncc(F)c(Nc3ccc(C(C)(C)CO)cc3)n2)cc1 [Compound R935168, 5-Fluoro-N4-[4-(2-hydroxy-1,1-dimethylethyl)phenyl]-N2-(4-isopropoxyphenyl)-2,4-pyrimidinediamine]	6.31	5.02	–	–
OCCOc1cccc(Nc2nc(Nc3cccc(O)c3)ncc2F)c1 [Compound R935170, 5-Fluoro-N4-[3-(2-hydroxyethoxy)phenyl]-N2-(3-hydroxyphenyl)-2,4-pyrimidinediamine]	6.17	< 5.00	–	–
CCOC(=O)C(C)(C)c1ccc(Nc2nc(Nc3ccc4c(c3)OCCO4)ncc2F)cc1 [Compound R935172, N4-[4-[Ethoxycarbonyl(dimethyl)methyl]phenyl]-N2-(3,4-ethylenedioxyphenyl)-5-fluoro-2,4-pyrimidinediamine]	5.86	5.17	–	–
OCCOc1ccc(Nc2ncc(F)c(Nc3ccc4oc(CO)cc4c3)n2)cc1 [Compound R935174, 5-Fluoro-N2-[4-(2-hydroxyethoxy)phenyl]-N4-(2-hydroxymethylbenzofur-5-yl)-2,4-pyrimidinediamine]	5.86	< 5.00	–	–
CC(C)Oc1ccc(Nc2nc(Nc3ccc(OCC(O)CO)cc3)ncc2F)cc1 (centres unmarked) [Compound R935175, N2-[4-(2,3-Dihydroxypropoxy)phenyl]-5-fluoro-N4-(4-isopropoxyphenyl)-2,4-pyrimidinediamine]	6.05	< 5.00	–	–
OCCOc1cccc(Nc2nc(Nc3ccc4c(c3)OCCO4)ncc2F)c1 [Compound R935176, N2-(3,4-Ethylenedioxyphenyl)-5-fluoro-N4-[3-(2-hydroxyethoxy)phenyl]-2,4-pyrimidinediamine]	5.93	< 5.00	–	–
OCCOc1cccc(Nc2ncc(F)c(Nc3ccc4oc(CO)cc4c3)n2)c1 [Compound R935178, 5-Fluoro-N2-[3-(2-hydroxyethyloxy)phenyl]-N4-(2-hydroxymethylbenzofur-5-yl)-2,4-pyrimidinediamine]	6.29	< 5.00	–	–
OCC(O)COc1ccc(Nc2ncc(F)c(Nc3cccc(O)c3)n2)cc1 (centres unmarked) [Compound R935180, N2-[4-(2,3-Dihydroxypropoxy)phenyl]-5-fluoro-N4-(3-hydroxyphenyl)-2,4-pyrimidinediamine]	5.91	< 5.00	–	–
COc1cc(Nc2nc(Nc3cccc(OCCO)c3)ncc2F)cc(OC)c1 [Compound R935181, N4-(3,5-Dimethoxyphenyl)-5-fluoro-N2-[3-(2-hydroxyethoxy)phenyl]-2,4-pyrimidinediamine]	5.75	< 5.00	–	–
Cn1nc(I)c2cc(Nc3ncc(F)c(Nc4ccc(I)c(O)c4I)n3)ccc21 [Compound R935221, N4-(2,4-Diiodo-3-hydroxypheny)-5-fluoro-N2-(3-iodo-1-methyl-indazoline-5-yl)-2,4-pyrimidinediamine]	–	–	< 5.00	< 5.00
COC(=O)Cn1ncc2cc(Nc3ncc(F)c(Nc4ccc(OC(C)C)cc4)n3)ccc21 [Compound R935222, 5-Fluoro-N4-(4-isopropoxyphenyl)-N2-[1-(methoxycarbonyl)methyl-indazoline-5-yl]-2,4-pyrimidinediamine]	–	–	6.28	< 5.00
COC(=O)Cn1ncc2cc(Nc3ncc(F)c(Nc4ccc5c(c4)OCCO5)n3)ccc21 [Compound R935223, N4-(3,4-Ethylenedioxyphenyl)-5-fluoro-N2-[1-(methoxycarbonyl)methyl-indazoline-5-yl]-2,4-pyrimidinediamine]	–	–	6.33	< 5.00

Structure (SMILES)	pIC50 ([1]; Homo sapiens, Mast cell)	pIC50 ([2]; Homo sapiens, Mast cell)	pIC50 [1]	pIC50 [2]
CNC(=O)Cn1ncc2ccc(Nc3nc(Nc4ccc(OC(C)C)cc4)ncc3F)cc21 [Compound R935224, 5-Fluoro-N2-(4-isopropoxyphenyl)-N4-[1-(N-methylaminocarbonyl)methyl-indazoline-6-yl]-2,4-pyrimidinediamine]	–	–	5.34	< 5.00
CNC(=O)Cn1ncc2ccc(Nc3nc(Nc4ccc5c(c4)OCCO5)ncc3F)cc21 [Compound R935225, N2-(3,4-Ethylenedioxyphenyl)-5-fluoro-N4-[1-(N-methylaminocarbonyl)methyl-indazoline-6-yl]-2,4-pyrimidinediamine]	–	–	5.19	< 5.00
COC(=O)Cn1ncc2cc(Nc3ncc(F)c(Nc4cccc(O)c4)n3)ccc21 [Compound R935237, 5-Fluoro-N4-(3-hydroxyphenyl)-N2-[1-(methoxycarbonyl)methyl-indazoline-5-yl]-2,4-pyrimidinediamine]	–	–	6.62	< 5.00
OCCn1ncc2ccc(Nc3ncc(F)c(Nc4ccc5cnn(CCO)c5c4)n3)cc21 [Compound R935238, N2,N4-Bis[1-(2-hydroxyethyl)indazoline-6-yl]-5-fluoro-2,4-pyrimidinediamine]	–	–	5.73	< 5.00
Fc1cnc(Nc2ccc3c(c2)OCCO3)nc1Nn1cccc1 [Compound R935277, N2-(3,4-Ethylenedioxyphenyl)-5-Fluoro-N4-(1H-pyrrol-1-yl)-2,4-pyrimidinediamine]	4.64	5.05	–	–
Oc1cccc(Nc2ncc(F)c(Nn3cccc3)n2)c1 [Compound R935278, 5-Fluoro-N2-(3-hydroxyphenyl)-N4-(1H-pyrrol-1-yl)-2,4-pyrimidinediamine]	5.32	< 5.00	–	–
COc1ccc(Nc2ncc([N+](=O)[O-])c(Nc3ccc(OC)c(OC)c3)n2)cc1OC [Compound R940089, N2,N4-Bis-(3,4-dimethoxypenyl)-5-nitro-2,4-pyrimidinediamine]	–	–	< 5.00	< 5.00
CCOc1ccc(Nc2ncc([N+](=O)[O-])c(Nc3ccc(OCC)cc3)n2)cc1 [Compound R940090, N2,N4-Bis-(4-ethoxypenyl)-5-nitro-2,4-pyrimidinediamine]	–	–	< 5.00	< 5.00
O=[N+]([O-])c1cnc(Nc2ccc3c(c2)OCCO3)nc1Nc1ccc2c(c1)OCCO2 [Compound R940095, N2,N4-Bis-(3,4-ethylenedioxyphenyl)-5-nitro-2,4-pyrimidinediamine]	< 5.00	< 5.00	–	–
O=[N+]([O-])c1cnc(Nc2ccc3c(c2)OC(F)(F)O3)nc1Nc1ccc2c(c1)OC(F)(F)O2 [Compound R940100, N2,N4-Bis-(2,2-difluoro-1,3-benzodioxol-5-yl)-5-nitro-2,4-pyrimidinediamine]	< 5.00	< 5.00	–	–
Oc1c(Cl)cc(Nc2ncc(F)c(Nc3cc(Cl)c(O)c(Cl)c3)n2)cc1Cl [Compound R940215, N2,N4-Bis-(3,5-dichloro-4-hydroxyphenyl)-5-fluoro-2,4-pyrimidinediamine]	6.07	< 5.00	–	–
Cc1c(O)ccc(Nc2ncc(F)c(Nc3ccc(O)c(C)c3C)n2)c1C [Compound R940217, N2,N4-Bis-(2,3-dimethyl-4-hydroxyphenyl)-5-fluoro-2,4-pyrimidinediamine]	< 5.00	< 5.00	–	–
CC(=O)Nc1ccc(Nc2ncc(F)c(Nc3ccc(NC(C)=O)cc3)n2)cc1 [Compound R940222, N2,N4-Bis-(4-Acetamidophenyl)-5-fluoro-2,4-pyrimidinediamine]	< 5.00	< 5.00	–	–
Cc1cc(Nc2nc(Nc3cccc(O)c3)ncc2F)cc(Cl)c1O [Compound R940235, N4-(3-Chloro-4-hydroxy-5-methylphenyl)-5-fluoro-N2-(3-hydroxyphenyl)-2,4-pyrimidinediamine]	6.10	< 5.00	–	–
CC(C)(C)c1cccc(Nc2ncc(F)c(Nc3cccc(O)c3)n2)c1 [Compound R940257, N2-(3-tert-Butylphenyl)-5-fluoro-N4-(3-hydroxyphenyl)-2,4-pyrimidinediamine]	6.18	< 5.00	–	–
COc1ccc(Nc2nc(Nc3cccc(C(C)(C)C)c3)ncc2F)cc1OC [Compound R940260, N2-(3-tert-Butylphenyl)-N4-(3,4-dimethoxyphenyl)-5-fluoro-2,4-pyrimidinediamine]	5.95	< 5.00	–	–
Oc1cccc(Nc2nc(NCCN3CCN(Cc4ccccc4)CC3)ncc2F)c1 [Compound R940261, N2-[2-(N-Benzylpiperazino)ethyl]-5-fluoro-N4-(3-hydroxyphenyl)-2,4-pyrimidinediamine]	< 5.00	< 5.00	–	–
